From patent publication US8865714B2, “Piperazine compound capable of inhibiting prostaglandin D synthase” (Taiho Pharmaceutical Co., Ltd., priority 2009, dated 2014)

How the values were obtained:
human H-PGDS = human H-PGDS (Homo sapiens (Human), UniProt O60760); test: Hematopoietic prostaglandin D synthase (H-PGDS) inhibiting action; type: biochemical; conditions: human H-PGDS, [14C] prostaglandin H2 10 μM
Description: More specifically, the reaction mixture (49 μL) containing 100 mM Tris-HCl (pH 8.0), 1 mM reduced glutathione, 0.1 mg/mL γ-globulin, and human H-PGDS (q.s.), and a compound (final concentration: 0.01-100 μM) was preincubated at 25° C. for 5 minutes. Note that a DMSO solution (final concentration: 1%) was added to the solvent control group. Subsequently, 1 μL of [14C] prostaglandin H2 (final concentration: 10 μM) was added to start the reaction. One minute after the start of the reaction, 250 μL of a reaction stopper solution (diethylether/methanol/1 M citric acid (30/4/1) at a temperature of −20° C. was added to stop the reaction. After the reaction was stopped, 50 μL of the upper layer portion (organic solvent phase) was applied to a TLC plate and developed at −20° C. for 45 minutes (developing solvent: diethylether/methanol/acetic acid (90/2/1)). After drying the TLC plate, the TLC plate was exposed to an imaging plate for 1 to 24 hours, and the radioactivity corresponding to prostaglandin D2 (PGD2) was analyzed using an image analyzer (produced by Fujifilm Corporation).

[1] = tested on: eosinophil infiltration in guinea pigs with antigen-induced rhinitis; test: Eosinophil infiltration inhibiting action in guinea pigs with antigen-induced rhinitis; type: in vivo; conditions: 30 mg/kg orally 3 times; washing 6 hours after induction; * = significance level below 0.05 vs control group
Description: (§1) A physiological saline solution containing 1 mg/mL of ovalbumin was subcutaneously injected into the back of 5-week-old male Std:Hartley guinea pigs in an amount of 1 mL/body for active sensitization (initial sensitization). One week and two weeks after initial sensitization, 20 μL of a physiological saline solution containing 10 mg/mL of ovalbumin was instilled into each nasal cavity using a micropipette (sensitization by nasal administration). Three weeks after initial sensitization, 20 μL of a physiological saline solution containing 10 mg/mL of ovalbumin was instilled into each nasal cavity using a micropipette to induce a rhinitis reaction.
The test compound (30 mg/kg) was orally administered 3 times in total (2 times at sensitization by nasal administrations and 1 time at the induction of a rhinitis reaction), 1 hour before sensitization or induction. The animals in the control group only received the medium orally.
6 hours after the induction of a rhinitis reaction, the nasal cavities were washed under pentobarbital sodium anesthesia. A nasal cavity washing liquid (phosphate buffered saline containing 3 mM of EDTA and 10 μM of indomethacin) was flushed using a Peristaltic Pump (Gilson, Inc.) in the direction from the trachea to the upper respiratory tract at the flow rate of 1 mL/min, and the liquid flowing out from the nasal cavities was collected for 3 minutes. The collected liquid was filtered through a cell strainer (40 μm), and centrifuged at 4° C., 300×g, for 10 minutes. Subsequently, the supernatant was removed by suction. 250 μL of nasal cavity washing liquid was added to the cell pellet to form a suspension. The total number of cells (×10^5 cells) in the cell suspension was determined using an automated blood cell counter (F-820, Sysmex Corporation).
A cell smear was prepared using a centrifugal device to collect cells (Cytospin-3, Shandon). After the cells were stained using a cell stain solution, the number of monocytes, the number of eosinophils, and the number of neutrophils were counted to obtain 300 cells in total by observation under a microscope (200-times magnification). The component ratio of each cell was calculated, and the number of eosinophils in the nasal cavity washing liquid was determined by the following formula. Number of eosinophils([…])=(Eosinophil count÷total count(300))×total number of cells
The rate of decrease in the number of eosinophils in the nasal cavity washing liquid was regarded as the eosinophil infiltration inhibition rate, and determined by the following formula. […] Inhibition rate(%)={(Number of eosinophils in the control group−number of eosinophils in the compound-administered group)÷(number of eosinophils in the control group−number of eosinophils in the normal group)}×100
16 cases were obtained from each group, and the number of eosinophils in the nasal cavity washing fluid was compared between the control group and each compound-administered group. Note that when the significance level was below 0.05, the eosinophil infiltration inhibiting action was considered to be present and indicated by a symbol (*) in the table.

C57BL/10-mdx (mdx) mice = test: Forelimb grip strength test in mice; type: in vivo; conditions: 30 mg/kg orally once a day for 4 weeks, * = significance level below 0.05 vs control group
Description: 4-week-old male C57BL/10-mdx (mdx) mice were used as a disease group, and 4-week-old male C57BL/10Sn (wild) mice were used as a normal group in the test. A acclimation period was provided after the arrival of the mice. An initial value of each individual was measured at 5 weeks of age, and 10 mice were assigned to each group. From the following day, the test compound (30 mg/kg) was orally administered to the mice once a day consecutively for 4 weeks. The animals in the control group only received the vehicle orally. The forelimb grip strength was measured at 4 weeks after the start of the administration. A value obtained by dividing the average of 5 forelimb grip strength measurement values (kg) determined using a small animal grip strength measurement device (GPM-100M, Melquest) by the body weight (kg) was used as the evaluation index (reference literature: Muscle Nerve., 35, 43-48 (2007)).
9 or more cases were obtained from each group to determine whether expression of forelimb grip strength enhancing action occurred. First, a significant decrease in the value of the control group compared to that of the normal group was confirmed, and then the value of the control group was compared with the value of the compound-administered group. When the significance level was below 0.05, the action was considered to be present and indicated by symbols (#) and (*) in the table.

[2] = tested on: PGD2 production in the nasal cavities of guinea pigs with antigen-induced rhinitis; test: PGD2 production inhibiting action in the nasal cavities of guinea pigs with antigen-induced rhinitis; type: in vivo; conditions: for Rate of decrease in PGD2 concentration in the nasal cavity washing fluid (%): 30 mg/kg orally 1 hour before induction, washing 30 minutes after induction, * = significance level below 0.05 vs control group
Description: as §1
The test compound (30 mg/kg) was orally administered 1 hour before induction of a rhinitis reaction. The animals in the control group only received the medium orally.
30 minutes after the induction of a rhinitis reaction, the nasal cavities were washed under pentobarbital sodium anesthesia. A nasal cavity washing liquid (phosphate buffered saline containing 3 mM of EDTA and 10 μM of indomethacin) was flushed using a Peristaltic Pump (Gilson, Inc.) in the direction from the trachea to the upper respiratory tract at the flow rate of 1 mL/min, and the liquid flowing out from the nasal cavities was collected for 1 minute. The collected liquid was centrifuged to separate the supernatant as the nasal cavity washing fluid. The concentration of PGD2 in the nasal cavity washing fluid was determined using an EIA kit (Prostaglandin D2-MOX EIA kit, Cayman Chemical).
The rate of decrease in PGD2 in the nasal cavity washing fluid was calculated by the following formula. […] Rate of decrease in PGD2 in the nasal cavity washing fluid(%)={(PGD2 concentration in the control group−PGD2 concentration in the compound-administered group)÷(PGD2 concentration in the control group−PGD2 concentration in the normal group)}×100 […]

human H-PGDS, sequence (O60760 whole entry): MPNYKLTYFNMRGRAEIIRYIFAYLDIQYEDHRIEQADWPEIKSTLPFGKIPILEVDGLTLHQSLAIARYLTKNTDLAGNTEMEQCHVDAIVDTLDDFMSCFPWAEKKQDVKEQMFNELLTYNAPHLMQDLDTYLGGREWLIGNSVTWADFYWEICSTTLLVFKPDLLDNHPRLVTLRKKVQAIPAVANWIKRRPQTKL

Compound | H-PGDS inhibition rate (%) (human H-PGDS; compound at 0.1 μM, relative to the control group) | IC50 (human H-PGDS; read-out: IC50) [nM] | Eosinophil infiltration inhibition rate (%) [1] | Forelimb grip strength measurement value/body weight (kg/kg) (C57BL/10-mdx (mdx) mice) | Rate of decrease in PGD2 concentration in the nasal cavity washing fluid (%) [2] | PGD2 production inhibiting action (in words) ([2]; 30 mg/kg orally, summary of Table 2)
4-((1-methylpyrrol-2-yl)-carbonyl)-N-(4-(4-morpholin-1-yl-carbonylpiperidin-1-yl)-phenyl)-1-piperazinecarboxamide [Example 3] | 54.2 | 76 | 49.9* % | 4.80 ± 0.09* kg/kg | 77.5* % | –
COc1ccc2nc(NC(=O)N3CCN(C(=O)c4cccc(F)c4)CC3)sc2c1 [Reference Example 16, 4-(3-fluorobenzoyl)piperazine-1-carboxylic acid-(6-methoxybenzothiazol-2-yl)amide] | – | – | −108.0* % | 4.29 ± 0.24 kg/kg | – | –
CON(C)C(=O)c1[nH]c(C)c(-c2nc3ccc(C(=O)c4ccccc4)cc3[nH]2)c1C [Reference Example 19, N-methoxy-N-methyl-4-(5-benzoylbenzimidazol-2-yl)-3,5-dimethylpyrrol-2-carboxamide] | – | – | – | – | 77.0* % | have the action
O=C(Nc1nc2ccc(Cl)cc2s1)N1CCN(C(=O)c2cccc(F)c2)CC1 [Reference Example 17, 4-(3-fluorobenzoyl)piperazine-1-carboxylic acid-(6-chlorobenzothiazol-2-yl)amide] | – | – | 16.6% | 4.48 ± 0.15 kg/kg | – | –
Cc1ccc2nc(NC(=O)N3CCN(C(=O)c4cccc(F)c4)CC3)sc2c1 [Reference Example 15, 4-(3-fluorobenzoyl)piperazine-1-carboxylic acid-(6-methylbenzothiazol-2-yl)amide] | – | – | −133.3* % | 4.20 ± 0.20 kg/kg | – | –
O=C(Nc1nc2ccc(Br)cc2s1)N1CCN(C(=O)c2cccc(F)c2)CC1 [Reference Example 13, 4-(3-fluorobenzoyl)-piperazine-1-carboxylic acid-(6-bromobenzothiazol-2-yl)amide] | – | – | 34.2% | 4.37 ± 0.15 kg/kg | – | –
Cc1cc2nc(NC(=O)N3CCN(C(=O)c4cccc(F)c4)CC3)sc2cc1C [Reference Example 14, 4-(3-fluorobenzoyl)-piperazine-1-carboxylic acid-(5,6-dimethylbenzothiazol-2-yl)amide] | – | – | −25.1% | 4.26 ± 0.22 kg/kg | – | –
